The text below walks through data of patent US9133115B2 (ACHILLION PHARMACEUTICALS, INC., priority 2008, dated 2015).

Structures are written as SMILES.

For the assay, the system named is HCV replicon. The experiment in a line: HCV replicon replication assay (NPT ELISA) in Huh-7 replicon-containing cells. Conditions: Hepatitis C virus, 72 h; HCV replicon in Huh-7 cells, three days incubation; read-out: EC50. Type of assay: cell-based. In outline: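 Huh-7 cells carrying a bicistronic HCV replicon (HCV-IRES-neo, EMCV-IRES-driven NS3–NS5B, 3′-NTR) were seeded at 6000-7500 cells/well, grown 24 h to 60-70% confluence, then treated with graded compound concentrations. Replication was read as NPT level by capture ELISA (rabbit anti-NPTII, Eu-N1 secondary); interferon alpha served as positive control.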
Regarding `C=C[C@@H]1C[C@]1(NC(=O)[C@@H]1C[C@@H](Oc2cc(-c3ccccc3)nc3cc(OC)ccc23)CN1C(=O)[C@@H](CC(=O)N1CCCC(=O)C1)C(C)(C)C)C(=O)NS(=O)(=O)C1CC1` [Compound 141, (2S,4R)-1-((S)-2-tert-butyl-4-oxo-4-(3-oxopiperidin-1-yl)butanoyl)-N-((1R,2S)-1-(cyclo-propylsulfonyl-carbamoyl)-2-vinylcyclopropyl)-4-(7-methoxy-2-phenylquinolin-4-yloxy)pyrrolidine-2-carboxamide], the EC50 (as a rule, the concentration needed to bring the measured effect to its halfway point) was less than 1000 nM. Consider `C=CC1C[C@]1(NC(=O)[C@@H]1C[C@@H](NC(=O)c2cc(-c3ccccc3)nc3ccccc23)CN1C(=O)[C@@H](CC(=O)N1CCC(C(F)(F)F)CC1)C(C)(C)C)C(=O)NS(=O)(=O)C1CC1` (stereo partly drawn) [Compound 199, N-((3R,5S)-1-((S)-2-tert-butyl-4-oxo-4-(4-(trifluoromethyl)piper-idin-1-yl)butanoyl)-5-((1R,2S)-1-(cyclo-propylsulfonyl-carbamoyl)-2-vinyl-cyclopropyl-carbamoyl)pyrrolidin-3-yl)-2-phenylquinoline-4-carboxamide], for which the EC50 is less than 1000 nM.

Regarding `C=C[C@@H]1C[C@]1(NC(=O)[C@@H]1C[C@@H](Oc2cc(-c3ccccn3)nc3c(Cl)c(OC)ccc23)CN1C(=O)[C@@H](CC(=O)N1CCCCC1)C(C)(C)C)C(=O)NS(=O)(=O)C1CC1` [Compound 179, (2S,4R)-1-((S)-2-tert-butyl-4-oxo-4-(piperidin-1-yl)butanoyl)-4-(8-chloro-7-methoxy-2-(pyridin-2-yl)quinolin-4-yloxy)-N-((1R,2S)-1-(cyclopropyl-sulfonylcarbamoyl)-2-vinylcyclo-propyl)pyrrolidine-2-carboxamide], the EC50 was less than 1000 nM. Take `C=C[C@@H]1C[C@]1(NC(=O)[C@@H]1C[C@@H](Oc2cc(-c3ccccc3)nc3cc(OC)ccc23)CN1C(=O)[C@@H](CC(=O)N1CCCCC1)C(C)(C)C)C(=O)NS(=O)(=O)CCC` [Compound 136, (2S,4R)-1-((S)-2-tert-butyl-4-oxo-4-(piperidin-1-yl)butanoyl)-4-(7-methoxy-2-phenylquinolin-4-yloxy)-N-((1R,2S)-1-(propylsulfonyl-carbamoyl)-2-vinyl-cyclopropyl)pyr-rolidine-2-carboxamide]: the EC50 is less than 1000 nM. On to `C=C[C@@H]1C[C@]1(NC(=O)[C@@H]1C[C@@H](Oc2cc(-c3ccccn3)nc3cc(OC)ccc23)CN1C(=O)[C@@H](CC(=O)N1CC2CC3CC(C2)CC1C3)C(C)(C)C)C(=O)NS(=O)(=O)C1CC1` [Compound 221], for which the EC50 was greater than 10000 nM. For the compound `C=C[C@@H]1CC1(NC(=O)[C@@H]1C[C@@H](Oc2cc(-c3cccnc3)nc3c(C)c(OC)ccc23)CN1C(=O)[C@@H](CC(=O)N1CCC(C(F)(F)F)CC1)C(C)(C)C)C(=O)NS(=O)(=O)C1CC1` (stereo in doubt) [Compound 253, (2S,4R)-1-((S)-2-tert-butyl-4-oxo-4-(4-(trifluoro-methyl)piperidin-1-yl)butanoyl)-N-((S)-1-(cyclopropyl-sulfonylcarbamoyl)-2-vinylcyclopropyl)-4-(7-methoxy-8-methyl-2-(pyridin-3-yl)quinolin-4-yloxy)pyrrolidine-2-carboxamide], the EC50 was less than 1000 nM.

Turning to `C=C[C@@H]1C[C@]1(NC(=O)[C@@H]1C[C@@H](Oc2nc(-c3ccccc3)cc3cc(OC)ccc23)CN1C(=O)[C@@H](CC(=O)N1CCCCC1)C(C)(C)C)C(=O)NS(=O)(=O)C1CC1` [Compound 70, (2S,4R)-1-((S)-2-tert-butyl-4-oxo-4-(piperidin-1-yl)butanoyl)-N-((1R,2S)-1-(cyclo-propylsulfonyl-carbamoyl)-2-vinylcyclopropyl)-4-(6-methoxy-3-phenylisoquinolin-1-yloxy)pyrrolidine-2-carboxamide], the EC50 is less than 1000 nM. As for `C=C[C@@H]1C[C@]1(NC(=O)[C@@H]1C[C@@H](Oc2cc(-c3ccccc3)nc3cc(OC)ccc23)CN1C(=O)[C@@H](CC(=O)N1CC2CCC1C2)C(C)(C)C)C(=O)NS(=O)(=O)C1CC1` (stereo partly drawn) [Compound 79, (2S,4R)-1-((2S)-2-(2-(2-azabi-cyclo[2.2.1]heptan-2-yl)-2-oxoethyl)-3,3-dimethylbutanoyl)-N-((1R,2S)-1-(cyclopropyl-sulfonylcarbamoyl)-2-vinylcyclopropyl)-4-(7-methoxy-2-phenylquinolin-4-yloxy)pyrrolidine-2-carboxamide], the figure is less than 1000 nM; as for `C=C[C@@H]1C[C@]1(NC(=O)[C@@H]1C[C@@H](Oc2cc(-c3ccccc3)nc3cc(OC)ccc23)CN1C(=O)[C@@H](CC(=O)N1CCCCC1)C(C)(C)C)C(=O)NS(=O)(=O)C1CCCCC1` [Compound 92, (2S,4R)-1-((S)-2-tert-butyl-4-oxo-4-(piperidin-1-yl)butanoyl)-N-((1R,2S)-1-(cyclo-hexylsulfonyl-carbamoyl)-2-vinyl-cyclopropyl)-4-(7-methoxy-2-phenylquinolin-4-yloxy)pyrrolidine-2-carboxamide], less than 1000 nM. With `C=C[C@@H]1C[C@]1(NC(=O)[C@@H]1C[C@@H](Oc2cc(-c3ccccc3)nc3cc(OC)ccc23)CN1C(=O)[C@@H](CC(=O)N1CCC(F)(F)C1)C(C)(C)C)C(=O)NS(=O)(=O)C1CC1` [Compound 89, (2S,4R)-1-((S)-2-tert-butyl-4-(3,3-difluoropyrrolidin-1-yl)-4-oxobutanoyl)-N-((1R,2S)-1-(cyclopropylsulfonyl-carbamoyl)-2-vinylcyclopropyl)-4-(7-methoxy-2-phenylquinolin-4-yloxy)pyrrolidine-2-carboxamide], the concentration giving a half-maximal response (EC50) was less than 1000 nM.

For `C=CC1CC1(NC(=O)[C@@H]1C[C@@H](Oc2cc(-c3ccccc3)nc3cc(OC)ccc23)CN1C(=O)[C@@H](CC(=O)N1CCCC(C(N)=O)C1)C(C)(C)C)C(=O)NS(=O)(=O)C1CC1` (stereo partly drawn) [Compound 45, 1-((3S)-3-((2S,4R)-2-(1-(cyclopropyl-sulfonylcarbamoyl)-2-vinylcyclopropyl-carbamoyl)-4-(7-methoxy-2-phenylquinolin-4-yloxy)pyrrolidine-1-carbonyl)-4,4-dimethylpentano-yl)piperidine-3-carboxamide], the EC50 was in the range of 1000 to 10000 nM. With `C=C[C@@H]1C[C@]1(NC(=O)[C@@H]1C[C@@H](Oc2cc(-c3ccccc3)nc3cc(OC)ccc23)CN1C(=O)[C@@H](CC(=O)N1CCCC(F)(F)C1)C(C)(C)C)C(=O)NS(=O)(=O)C1CC1` [Compound 108, (2S,4R)-1-((S)-2-tert-butyl-4-(3,3-difluoropiperidin-1-yl)-4-oxobutanoyl)-N-((1R,2S)-1-(cyclo-propylsulfonyl-carbamoyl)-2-vinylcyclopropyl)-4-(7-methoxy-2-phenylquinolin-4-yloxy)pyrrolidine-2-carboxamide], the EC50 was less than 1000 nM. Take `C=C[C@@H]1C[C@]1(NC(=O)[C@@H]1C[C@@H](Oc2cc(-c3ccccn3)nc3c4c(ccc23)CCC4)CN1C(=O)[C@@H](CC(=O)N1CCCCC1)C(C)(C)C)C(=O)NS(=O)(=O)C1CC1` [Compound 242, (2S,4R)-1-((S)-2-tert-butyl-4-oxo-4-(piperidin-1-yl)butanoyl)-N-((2S)-1-(cyclopropyl-sulfonylcarbamoyl)-2-vinylcyclopropyl)-4-(2-(pyridin-2-yl)-8,9-dihydro-7H-cyclopenta[h]quino-lin-4-yloxy)pyrrolidine-2-carboxamide]: the EC50 is less than 1000 nM. In the case of `C=C[C@@H]1C[C@]1(NC(=O)[C@@H]1C[C@@H](OC(=O)n2c3ccc(Cl)cc3c3cc(Cl)ccc32)CN1C(=O)[C@@H](CC(=O)N1CCCCC1)C(C)(C)C)C(=O)NS(=O)(=O)C1CC1` [Compound 155, (3R,5S)-1-((S)-2-tert-butyl-4-oxo-4-(piperidin-1-yl)butanoyl)-5-((1R,2S)-1-(cyclo-propylsulfonyl-carbamoyl)-2-vinyl-cyclopropyl-carbamoyl)pyrrolidin-3-yl 3,6-dichloro-9H-carbazole-9-carboxylate], the EC50 is less than 1000 nM. In the case of `C=C[C@@H]1C[C@]1(NC(=O)[C@@H]1C[C@@H](Oc2cc(-c3ccccc3)nc3c(OC)cccc23)CN1C(=O)[C@@H](CC(=O)N1CCCCC1)C(C)(C)C)C(=O)NS(=O)(=O)C1CC1` [Compound 231, (2S,4R)-1-((S)-2-tert-butyl-4-oxo-4-(piperidin-1-yl)butanoyl)-N-((2S)-1-(cyclopropyl-sulfonylcarbamoyl)-2-vinylcyclopropyl)-4-(8-methoxy-2-phenylquinolin-4-yloxy)pyrrolidine-2-carboxamide], the EC50 is less than 1000 nM. As for `C=C[C@@H]1C[C@]1(NC(=O)[C@@H]1C[C@@H](Oc2cc(-c3ccccc3)nc3cc(OC)ccc23)CN1C(=O)[C@@H](CC(=O)N1CCCCC1)C(C)(C)C)C(=O)NS(=O)(=O)c1cccs1` [Compound 72, (2S,4R)-1-((S)-2-tert-butyl-4-oxo-4-(piperidin-1-yl)butanoyl)-4-(7-methoxy-2-phenylquinolin-4-yloxy)-N-((1R,2S)-1-(thiophen-2-ylsulfonylcarbamoyl)-2-vinylcyclopropyl)pyr-rolidine-2-carboxamide], the figure is less than 1000 nM; as for `C=C[C@@H]1C[C@]1(NC(=O)[C@@H]1C[C@@H](Oc2cc(-c3ccccn3)c3ccc(OC)c(Cl)c3n2)CN1C(=O)[C@@H](CC(=O)N1CCCCC1)C(C)(C)C)C(=O)NS(=O)(=O)C1CC1` [Compound 148, (2S,4R)-1-((S)-2-tert-butyl-4-oxo-4-(piperidin-1-yl)butanoyl)-4-(8-chloro-7-methoxy-4-(pyridin-2-yl)quinolin-2-yloxy)-N-((1R,2S)-1-(cyclopropyl-sulfonylcarbamoyl)-2-vinyl-cyclopropyl)pyr-rolidine-2-carboxamide], 1000 to 10000 nM; as for `C=C[C@@H]1C[C@]1(NC(=O)[C@@H]1C[C@@H](Oc2cc(-c3ccccc3)nc3cc(OC)ccc23)CN1C(=O)[C@@H](CC(=O)N1CCCCC1)C(C)(C)C)C(=O)NS(=O)(=O)C1(Cc2ccccc2)CC1` [Compound 147, (2S,4R)-N-((1R,2S)-1-(1-benzylcyclo-propylsulfonyl-carbamoyl)-2-vinyl-cyclopropyl)-1-((S)-2-tert-butyl-4-oxo-4-(piperidin-1-yl)butanoyl)-4-(7-methoxy-2-phenylquinolin-4-yloxy)pyrrolidine-2-carboxamide], 1000 to 10000 nM.
